Data set [1] relates to agr. As to the kind of experiment: agr YFP transcriptional reporter assay (S. aureus AH1677 with pDB59). Type of data set: cell-based. The note with it: for IC50: Staphylococcus aureus. How it is done: Bacterial strains and culture. All bacteria were grown at 37° C. with 200 rpm shaking unless otherwise specified. S. aureus and P. aeruginosa were grown in BHI medium and LB medium, respectively. S. aureus AH1677 (with an agr-YFP reporter plasmid) and P. aeruginosa PAO1-PGSC (with a plasI-LVAgfp reporter plasmid) were used as QS transcriptional reporters and grown with 10 μg/mL chloramphenicol and 300 μg/mL carbenicillin, respectively. All other strains were grown without supplemental antibiotic. S. aureus RN6390b and P. aeruginosa PAO1-PGSC were used as WT strains in vesicle lysis experiments, while S. aureus RN9222 and P. aeruginosa PAO-JG35 were used as QS mutants. RN9222 was grown without antibiotic as it was not used as a reporter strain (i.e., it served only as QS mutant).
High-throughput screening and follow-up analysis protocols. Test compounds and positive control 1 were delivered in 2.5 nL aliquots of DMSO with an Echo 550 liquid handler (LabCyte Inc.) into black 384-well microtiter plates (Corning). All test compounds were tested at 10 μM; positive control 1 was tested at 250 nM. DMSO was used as a negative control. Overnight cultures (2 mL) of WT S. aureus (RN6390b) were grown at 37° C. with shaking at 200 rpm. These cultures were diluted 1:500 (v/v) in fresh BHI medium, at which point vesicle solutions were added to a final concentration of 1 mM phospholipid (as determined by ^31P NMR analyses). This vesicle-cell mixture was then added to the 384-well microtiter plates with a Multidrop 384 liquid-dispensing robot (Thermo Scientific) for a total volume of 50 μL per well. Plates were incubated statically for ˜24 hr at 37° C., at which point fluorescence (excitation 483, emission 530) and OD600 (absorbance at 600 nm) measurements were made using a CLARIOstarR Plus microtiter plate reader (BMG Labtech) running MARS data analysis software. Scatter plots were generated using the Collaborative Drug Discovery Vault informatics platform. The dose-response experiment using the vesicle lysis assay was performed in a 384-well plate in technical duplicate with compound concentrations of 0.1, 0.25, 0.5, 1, 2.5, 5, 10, and 20 μM. Dose-response curves were generated using variable slope (4 parameter) non-linear regression analysis for compound inhibition using GraphPad Prism software (v. 9). Analysis of the QS modulatory activity of the HTS hits and 6 (savirin) was performed using the S. aureus YFP transcriptional reporter strain. HTS hits were purchased directly from Life Chemicals, Inc. DMSO stock solutions (10 mM) of each compound were prepared and stored at −20° C. Serial dilutions (1:3) were prepared from the stock solutions in DMSO, and 2 μL aliquots of the resulting dilutions were added to the wells of black 96-well microtiter plates (Corning). Overnight cultures of the S. aureus reporter strain (2 mL) were grown at 37° C. with shaking at 200 rpm. Cultures were diluted 1:50 (v/v) into fresh BHI medium, and 198 μL of this diluted culture were added to each well containing compound, for a total volume of 200 μL per well. All plates contained a vehicle control consisting of 2 μL of DMSO and 198 μL of culture and a media control consisting of 200 μL BHI. Plates were incubated for ˜24 hours at 37° C. with shaking at 200 rpm. Fluorescence (excitation 510, emission 544) and OD600 measurements were acquired with a PerkinElmer EnVision microtiter plate reader running Envision Manager software. Background fluorescence from BHI control was subtracted from raw fluorescence reads, OD600 corrected, and finally normalized to vehicle control. Dose-response curves and IC50 values were generated using 3-parameter non-linear regression analysis for compound inhibition using GraphPad Prism software (v. 9). All compounds were tested in technical triplicate with at least 3 biological replicates.
In general terms: Reporter assays use an easily measured gene product as a stand-in for the process of interest.

For data set [2], the system named is S. aureus. The experiment in a line: S. aureus growth (OD600). Type of data set: cell-based. To be noted: S. aureus, HTS hits. How it is done:
Microtiter plate vesicle lysis assays. Portions of media (2 or 10 mL) were inoculated with individual bacterial colonies and allowed to shake overnight. From these overnight cultures, subcultures were prepared by diluting the cultures 1:50 (v/v) in fresh BHI for S. aureus or 1:100 (v/v) in fresh LB for P. aeruginosa. An aliquot of each subculture (178 μL) was added to 20 μL of vesicle suspension and 2 μL of compound solution (dissolved in DMSO at 100× working concentration) in a clear-bottomed, black 96-well microtiter plate (Corning 3904). For controls, DMSO (vehicle) or Triton X-100 (1% final concentration) was substituted for compound. Plate covers were coated with an aqueous solution of 0.05% Triton X-100 and 20% ethanol (Brewster, 2003) to prevent the accumulation of condensation. Plates were incubated in a Biotek Synergy 2 microplate reader running Gen5 1.05 software at 37° C. with shaking at the high-speed setting. Fluorescence (excitation 500 nm, emission 540 nm) and OD600 (absorbance at 600 nm) measurements were recorded every 15 minutes for 12 hours. All experiments were performed in technical triplicate in a single microtiter plate. Biological triplicates were then obtained over three days. GraphPad Prism software (v. 9) was used to generate curves and calculate standard error.
High-throughput screening and follow-up analysis protocols. Test compounds and positive control 1 were delivered in 2.5 nL aliquots of DMSO with an Echo 550 liquid handler (LabCyte Inc.) into black 384-well microtiter plates (Corning). All test compounds were tested at 10 μM; positive control 1 was tested at 250 nM. DMSO was used as a negative control. Overnight cultures (2 mL) of WT S. aureus (RN6390b) were grown at 37° C. with shaking at 200 rpm. These cultures were diluted 1:500 (v/v) in fresh BHI medium, at which point vesicle solutions were added to a final concentration of 1 mM phospholipid (as determined by ^31P NMR analyses). This vesicle-cell mixture was then added to the 384-well microtiter plates with a Multidrop 384 liquid-dispensing robot (Thermo Scientific) for a total volume of 50 μL per well. Plates were incubated statically for ˜24 hr at 37° C., at which point fluorescence (excitation 483, emission 530) and OD600 (absorbance at 600 nm) measurements were made using a CLARIOstarR Plus microtiter plate reader (BMG Labtech) running MARS data analysis software. Scatter plots were generated using the Collaborative Drug Discovery Vault informatics platform. […] Fluorescence (excitation 510, emission 544) and OD600 measurements were acquired with a PerkinElmer EnVision microtiter plate reader running Envision Manager software. […]

For data set [3], the target named is T1, human apelin receptor (Homo sapiens, UniProt P35414).
T1 sequence (P35414 1-380): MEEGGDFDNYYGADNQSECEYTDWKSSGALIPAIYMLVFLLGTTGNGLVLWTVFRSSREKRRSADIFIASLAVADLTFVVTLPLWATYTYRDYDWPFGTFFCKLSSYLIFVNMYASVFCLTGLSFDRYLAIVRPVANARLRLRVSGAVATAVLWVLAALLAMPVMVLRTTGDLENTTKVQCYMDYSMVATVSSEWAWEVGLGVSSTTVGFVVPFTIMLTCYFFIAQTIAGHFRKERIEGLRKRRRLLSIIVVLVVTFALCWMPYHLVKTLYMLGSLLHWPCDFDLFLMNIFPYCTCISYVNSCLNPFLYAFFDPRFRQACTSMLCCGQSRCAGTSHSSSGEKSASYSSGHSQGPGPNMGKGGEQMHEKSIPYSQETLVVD
The note with it: Smith, 2019; cited from earlier work.

Data set [4] can be described thus: Solubility in DMSO and aqueous solutions.

Where two headings read alike, the source gives them in different places.

With `Cc1nn2c(C(C)C)cc(C(=O)O)nc2c1-c1ccccc1` [Compound 10, 7-isopropyl-2-methyl-3-phenylpyrazolo[1,5-a]pyrimidine-5-carboxylic acid], in data set [1] (S. aureus agr YFP reporter), the “agr inhibition in agr transcriptional reporter assay” value was “near maximal agr inhibitors”. Moreover, the IC50 (in general, the midpoint of a concentration-inhibition curve) in data set [1] was determined as 1220 nM; in data set [1] (24 h, read-out: IC50 in the agr reporter assay), 500 nM. Also, the “inhibition of cellular growth” value in data set [2] is on record as “do not inhibit cellular growth”. Moreover, in data set [3], the “reported activity at human apelin receptor” value is listed as “agonists”. Further, in data set [4], the “solubility in DMSO and aqueous solutions” value was “readily soluble”.

These data come from patent publication US12070445B2, “System and assay for monitoring production/release of membrane-lytic toxins in bacteria and compounds for modulating same” (priority 2021, dated 2024).
